Data published in PubChem BioAssay AID1845195 (Molecular Pharmacology Branch, DTP, NCI, 2023).
Values joined by “and” are separate entries in the source; they are usually repeats but may differ in a detail not shown here. Identical values can stand only once.

Test system: 156681-154-R-J1 tumor spheroid viability
Test: Anticancer human tumor 156681-154-R-J1 patient-derived melanoma cell line growth inhibition
Conditions: spheroids with HUVEC and MSC; for viability, T/C: stronger effect = lower value
Procedure, shortened: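 Complex spheroids of malignant cells with endothelial cells and mesenchymal stem cells; agents alone or combined, from near clinical Cmax (or 10 microM if unknown) down in half-log steps, 0.25% DMSO final.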
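Further: spheroids exposed to compounds for 7 days before readout.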
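Wherever viability, T/C is given: percent of vehicle control viability where 100% = DMSO-treated spheroids.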

Structure (SMILES): COc1ccc([C@@H](O)c2cc(-c3ncnc4cc(N5CCOCC5)ccc34)c(F)cc2Cl)nn1 + Cn1nnc2c(C(N)=O)ncn2c1=O
- IC50 (curve of first compound, second compound 1 µM): > 10000 nM
- IC50 (curve of first compound, second compound 3.16 µM): > 10000 nM
- IC50 (curve of first compound, second compound 10 µM): 7330 nM
- IC50 (curve of first compound, second compound 31.6 µM): > 10000 nM
- IC50 (curve of first compound, second compound 100 µM): > 10000 nM
- viability, T/C (second compound 1 µM, first compound 0.0316 µM): 104%
- viability, T/C (second compound 1 µM, first compound 0.1 µM): 98.4%
- viability, T/C (second compound 1 µM, first compound 0.316 µM): 86%
- viability, T/C (second compound 1 µM, first compound 1 µM): 70.5%
- viability, T/C (second compound 1 µM, first compound 3.16 µM): 72.2%
- viability, T/C (second compound 1 µM, first compound 10 µM): 53.3%
- viability, T/C (second compound 3.16 µM, first compound 0.0316 µM): 101%
- viability, T/C (second compound 3.16 µM, first compound 0.1 µM): 111%
- viability, T/C (second compound 3.16 µM, first compound 0.316 µM): 77.7%
- viability, T/C (second compound 3.16 µM, first compound 1 µM): 79.1%
- viability, T/C (second compound 3.16 µM, first compound 3.16 µM): 62%
- viability, T/C (second compound 3.16 µM, first compound 10 µM): 54.8%
- viability, T/C (second compound 10 µM, first compound 0.0316 µM): 71.5%
- viability, T/C (second compound 10 µM, first compound 0.1 µM): 85.4%
- viability, T/C (second compound 10 µM, first compound 0.316 µM): 73.8%
- viability, T/C (second compound 10 µM, first compound 1 µM): 66.2%
- viability, T/C (second compound 10 µM, first compound 3.16 µM): 70.7%
- viability, T/C (second compound 10 µM, first compound 10 µM): 42.9%
- viability, T/C (second compound 31.6 µM, first compound 0.0316 µM): 60%
- viability, T/C (second compound 31.6 µM, first compound 0.1 µM): 67.3%
- viability, T/C (second compound 31.6 µM, first compound 0.316 µM): 71.8%
- viability, T/C (second compound 31.6 µM, first compound 1 µM): 47.2%
- viability, T/C (second compound 31.6 µM, first compound 3.16 µM): 77.4%
- viability, T/C (second compound 31.6 µM, first compound 10 µM): 45.2%
- viability, T/C (second compound 100 µM, first compound 0.0316 µM): 55%
- viability, T/C (second compound 100 µM, first compound 0.1 µM): 55.7%
- viability, T/C (second compound 100 µM, first compound 0.316 µM): 48.1%
- viability, T/C (second compound 100 µM, first compound 1 µM): 64.4%
- viability, T/C (second compound 100 µM, first compound 3.16 µM): 54.7%
- viability, T/C (second compound 100 µM, first compound 10 µM): 48.4%

Structure (SMILES): CNCc1ccc(-c2cc(-c3nc(-c4ccc(S(=O)(=O)C(C)C)cc4)cnc3N)on2)cc1
- viability, T/C (compound 0.00949 µM): 96.4% and 93.6% and 109%
- viability, T/C (compound 0.03 µM): 103% and 118% and 115%
- viability, T/C (compound 0.0949 µM): 95.8% and 90.1% and 96.7%
- viability, T/C (compound 0.3 µM): 89% and 71.3% and 84.3%
- viability, T/C (compound 0.949 µM): 59.4% and 53.5% and 57.1%
- viability, T/C (compound 3 µM): 24.5% and 15.9% and 19.6%
- IC50 (curve of compound): 1290 nM and 931 nM and 1170 nM

Structure (SMILES): Cn1ncnc1[C@H]1c2n[nH]c(=O)c3cc(F)cc(c23)N[C@@H]1c1ccc(F)cc1 + CC[C@@]1(O)C(=O)OCc2c1cc1n(c2=O)Cc2cc3c(CN(C)C)c(O)ccc3nc2-1
- IC50 (curve of first compound, second compound 0.003 µM): 871 nM
- IC50 (curve of first compound, second compound 0.00949 µM): 207 nM
- IC50 (curve of first compound, second compound 0.03 µM): < 9.49 nM
- IC50 (curve of first compound, second compound 0.0949 µM): < 9.49 nM
- IC50 (curve of first compound, second compound 0.3 µM): < 9.49 nM
- viability, T/C (second compound 0.003 µM, first compound 0.00949 µM): 87.1%
- viability, T/C (second compound 0.003 µM, first compound 0.03 µM): 102%
- viability, T/C (second compound 0.003 µM, first compound 0.0949 µM): 82.5%
- viability, T/C (second compound 0.003 µM, first compound 0.3 µM): 77.3%
- viability, T/C (second compound 0.003 µM, first compound 0.949 µM): 47.8%
- viability, T/C (second compound 0.003 µM, first compound 3 µM): 8.02%
- viability, T/C (second compound 0.00949 µM, first compound 0.00949 µM): 58.8%
- viability, T/C (second compound 0.00949 µM, first compound 0.03 µM): 65.9%
- viability, T/C (second compound 0.00949 µM, first compound 0.0949 µM): 48.8%
- viability, T/C (second compound 0.00949 µM, first compound 0.3 µM): 50%
- viability, T/C (second compound 0.00949 µM, first compound 0.949 µM): 21.2%
- viability, T/C (second compound 0.00949 µM, first compound 3 µM): 9.62%
- viability, T/C (second compound 0.03 µM, first compound 0.00949 µM): 33.5%
- viability, T/C (second compound 0.03 µM, first compound 0.03 µM): 28.7%
- viability, T/C (second compound 0.03 µM, first compound 0.0949 µM): 22.1%
- viability, T/C (second compound 0.03 µM, first compound 0.3 µM): 18.2%
- viability, T/C (second compound 0.03 µM, first compound 0.949 µM): 15.2%
- viability, T/C (second compound 0.03 µM, first compound 3 µM): 6.77%
- viability, T/C (second compound 0.0949 µM, first compound 0.00949 µM): 29.5%
- viability, T/C (second compound 0.0949 µM, first compound 0.03 µM): 33.4%
- viability, T/C (second compound 0.0949 µM, first compound 0.0949 µM): 32.7%
- viability, T/C (second compound 0.0949 µM, first compound 0.3 µM): 31.2%
- viability, T/C (second compound 0.0949 µM, first compound 0.949 µM): 24.9%
- viability, T/C (second compound 0.0949 µM, first compound 3 µM): 10.6%
- viability, T/C (second compound 0.3 µM, first compound 0.00949 µM): 41.8%
- viability, T/C (second compound 0.3 µM, first compound 0.03 µM): 43.8%
- viability, T/C (second compound 0.3 µM, first compound 0.0949 µM): 47.8%
- viability, T/C (second compound 0.3 µM, first compound 0.3 µM): 43.3%
- viability, T/C (second compound 0.3 µM, first compound 0.949 µM): 44%
- viability, T/C (second compound 0.3 µM, first compound 3 µM): 24.6%

Structure (SMILES): Cc1sc2c(c1C)C(c1ccc(Cl)cc1)=NC(CC(=O)Nc1ccc(O)cc1)c1nnc(C)n1-2 (centres undefined)
- viability, T/C (compound 0.00949 µM): 77.1% and 103% and 87%
- viability, T/C (compound 0.03 µM): 89.1% and 92% and 94.1%
- viability, T/C (compound 0.0949 µM): 83.7% and 95.2% and 98%
- viability, T/C (compound 0.3 µM): 70% and 80.3% and 96.3%
- viability, T/C (compound 0.949 µM): 70.8% and 58.4% and 64.4%
- viability, T/C (compound 3 µM): 38.2% and 42.2% and 73%
- IC50 (curve of compound): 1920 nM and 1730 nM and > 3000 nM
